Like-named read-outs stand apart in the source and are kept apart here. Blank lines part the entries; values can stand above or below the substance they belong to.
Legend:
[1] = SDF-treated Control
Method: Specimens of dental tissues were prepared using a protocol modified slightly from previous publications.^45 The specimens consisted of extracted human molars. […] The extracted teeth were stored at 4° C. in 0.9% wt./vol. NaCl containing 0.002% sodium azide. […] The tooth was sectioned parallel to the long axis to provide 1.4 mm thick slabs. The prepared sections were stored in a modified phosphate buffered saline (PBS) buffer (20 mM Na2HPO4, 137 mM NaCl, 2.7 mM KCl, and 1.8 mM KH2PO4, pH 7.4) at 4° C. until experimental use.
SDF was applied to dental tissue following the detailed guidelines published by the UCSF Caries Arrest Committee.^25,34 Briefly, the prepared slabs of dental tissue were removed from the modified PBS buffer, rinsed with Milli-Q purified water, and gently dried with compressed air to reveal suitable carious regions of the dental tissues. A single drop of commercially available 38% SDF solution (Dengen Caries Arrest; Dengen Dental, Bahadurgarh, Haryana, India) was placed into a fresh plastic dish. A microbrush applicator head was dipped into the solution and touched to the side of the dish to remove excess fluid by surface tension. The SDF was applied to the dental tissue, allowed to absorb for 1 minute and the treated sample was gently rinsed with Milli-Q purified water. The tissue was placed back into modified PBS buffer and incubated at 37° C. for 6 hours to mimic the oral environment and to allow for SDF activity.
To image the mineral morphology, surface coverage, and to determine the Ca/P ratios of the precipitated material, a Hitachi SU8230 Field Emission Scanning Electron Microscope (Hitachi High-Tech America, IL, USA) equipped with a silicon drift EDS detector (X-Max, Oxford Instruments, MA, USA) was used. SEM imaging was completed at 5 kV and EDS measurements made with an acceleration voltage of 10 kV to improve signal. Prior to SEM/EDS analysis, samples were sputter-coated with 5 nm iridium using a Quorum sputter coating system (Q150, Quorum, UK). EDS analysis was performed using AZtec software (Oxford Instruments, MA, USA) and values were averaged across a minimum of three regions for each sample.
Treated dental tissues were analyzed using SEM for imaging and EDS for compositional analysis. Average Ca/P molar ratios were calculated for each slab of dental tissue from both SDF-treated and untreated regions of enamel and dentin, corresponding to SDF treatment of carious dental tissues, to assess mineral formation and compositional changes on the tooth samples in the presence and absence of the bifunctional peptide.

[2] = Enzyme-mediated mineralization on SDF-treated dental tissue slabs, SEM/EDS Ca/P ratio of mineral layer; parameters: species or system human; settings: for Averaged calculated Ca/P ratio: Mineralized sample
Method: (§1) Lyophilized peptide stocks were selected and reconstituted in Milli-Q (resistance, >18 MQ) water immediately prior to experiments with both silver-coated silica substrates and slabs of dental tissue. Stock solutions were prepared to a final concentration of 100 μM peptide. Silica substrates or slabs of dental tissue were submerged into a solution containing 50 μM peptide and allowed 2-4 hours gentle shaking at room temperature to ensure the binding of AgBP. This excess concentration and incubation time was used to ensure ample peptide binding.
NaCl containing 0.002% sodium azide.
To investigate calcium phosphate nucleation facilitated by the MP, an alkaline phosphatase (AP) based mineralization model was followed.^44 This model mimics the biological process wherein inorganic phosphate is cleaved from organic phosphate by naturally occurring AP and subsequently reacts with free calcium. Briefly, control samples without peptide and test samples functionalized with MP were submerged in a remineralization buffer containing 14.4 mM β-glycerophosphate (β-GP) and 24 mM Ca^2+ in 25 mM Tris-HCl at pH 7.4. Mineralization reactions were initiated by adding alkaline phosphatase (fastAP; ThermoFisher, USA) to the solutions to achieve a final concentration of 1.4×10^−6 g/mL and allowed to react at 37° C. for 2 hours to form a calcium phosphate mineral layer on the sample surface. Samples were removed from the solution and allowed to air dry prior to microscopic and spectroscopic analyses.
For the bifunctional peptide treated group, SDF-treated dental tissues were functionalized with either 0 μM or 50 μM bifunctional peptide prior to the mineralization protocol. […] On average, the Ca/P ratios from the mineralized layer observed in both the peptide-treated and SDF-treated tissue as well as the SDF-only treated tissues, were about 0.1-0.15 less than what was obtained for the untreated and peptide-functionalized Ag-coated silica samples. The presence of calcium phosphate rich minerals in the slabs of dental tissue may alter the availability of free calcium and phosphate in the enzyme-mediated mineralization reaction. […] Differences in the mineralization may also be attributed to the anchoring effect of the AgBP peptide being bound to the SDF-treated regions of the dental tissue.

[3] = cell-free assay, demineralized human dentin root surfaces; cited from earlier work
[4] = Enzyme-mediated (alkaline phosphatase) mineralization on Ag-coated silica substrates, SEM/EDS; settings: 50 μM bifunctional peptide
Method: as §1
To confirm the selectivity and specificity for silver-binding of bifunctional peptides, preliminary studies were conducted on silver-coated silica substrates. Silica wafers were cut into 1 cm square pieces using a diamond scribe and a published protocol for […] deposition of silver onto silica was followed.^66,67 Briefly, the Si(111) wafers were cleansed in hydrogen peroxide and sulfuric acid solution (3:7) for 20 minutes, rinsed thoroughly with Milli-Q water, and dried with N2 gas prior to use. An etching step was employed prior to Ag-deposition, where a drop of 5% NH4F solution was placed on the surface of the cleaned silica substrate for 30 s and removed carefully with N2 gas. […]

Substance: silver diamine fluoride [SDF]
Averaged calculated Ca/P ratio ([1]; Dentin (untreated region)): 1.419
Averaged calculated Ca/P ratio ([1]; Enamel (untreated region)): 1.447
Averaged calculated Ca/P ratio ([1]; SDF-stained dentin): 1.546
Averaged calculated Ca/P ratio ([1]; SDF-stained enamel): 1.540
Averaged calculated Ca/P ratio ([2]; SDF-treated, 0 μM peptide, Dentin): 1.066
Averaged calculated Ca/P ratio ([2]; SDF-treated, 0 μM peptide, Enamel): 1.092
Averaged calculated Ca/P ratio ([2]; SDF-treated, 0 μM peptide, SDF-stained dentin): 1.137
Averaged calculated Ca/P ratio ([2]; SDF-treated, 0 μM peptide, SDF-stained enamel): 1.100

Substance: SYEKSHSQAINTDRT [MP, mineralizing peptide domain, 15 amino acids, derived from amelogenin]
hydroxyapatite mineral layer formation [3]: regulated formation of a robust hydroxyapatite mineral layer

Averaged calculated Ca/P ratio ([2]; SDF-treated Peptide-functionalized (50 μM), Dentin): 1.291
Averaged calculated Ca/P ratio ([2]; SDF-treated Peptide-functionalized (50 μM), Enamel): 1.338
Averaged calculated Ca/P ratio ([2]; SDF-treated Peptide-functionalized (50 μM), SDF-stained dentin): 1.238
Averaged calculated Ca/P ratio ([2]; SDF-treated Peptide-functionalized (50 μM), SDF-stained enamel): 1.257
average Ca/P ratio of mineral layer ([4]; EDS): about 1.40
mineral coverage compared to control samples ([4]; alkaline phosphatase-based mineralization, SEM): significantly higher mineral coverage
Substance: SYEKSHSQAINTDRTAPAEQLGVRKELRGV [MP_APA_AgBP, bifunctional peptide, MP and AgBP domains joined by APA spacer]
mineralization onto SDF treated dental tissues ([2]; four SDF treated slabs of carious dental tissue, bright field optical microscopy, FIG. 7): demonstrated the capacity to direct mineralization

Reference: US20250213452A1, “BIFUNCTIONAL PEPTIDES FOR BIOMIMETIC RECONSTRUCTION OF SILVER DIAMINE FLUORIDE TREATED DENTAL TISSUES” (University of Kansas, priority 2022, published 2025)
